“Also recorded” adds a separate entry of the source.
Columns and labels:
[1] = as is well known; except diarrhea no side effects due to overdose observed; cited from earlier work
[2] = system: Peripheral Neuropathy in a Mouse Caused by Oxaliplatin; experiment: Cold plate test (10° C.), peripheral neuropathy caused by oxaliplatin; format: in vivo, Balb/c mice
Procedure: The preventive action of xylitol on hyperesthesia that occurs when an anticancer drug, oxaliplatin, was administered was examined. […] Xylitol was orally administered to a mouse simultaneously with the administration of oxaliplatin, and the following tests (cold plate test and von Frey test) were performed. Oxaliplatin is an anticancer drug classified as a platinum-containing drug. In all of the examples described below, a dosage (administered amount) (mg/kg) refers to the weight of the administered substance per kg body weight of the mouse.
Six to seven-week-old female Balb/c mice were used for the tests. All the mice were acclimated for seven days after arrival. Then, the mice were grouped into the following four groups: a control group, a group receiving oxaliplatin, and two groups receiving oxaliplatin and two different doses of xylitol (groups receiving oxaliplatin+xylitol). Each group consisted of nine mice.
On Day 8 of acclimation, the mice in the group receiving oxaliplatin and the groups receiving oxaliplatin+xylitol were intraperitoneally administered with oxaliplatin at a dose of 6 mg/kg. This day was designated as Day 0 of administration. Thereafter, these mice were intraperitoneally administered with oxaliplatin at a daily dose of 6 mg/kg on Day 7 and Day 14.
The mice in a first group receiving oxaliplatin and xylitol were orally administered with xylitol at a dose of 1 mg/kg daily from Day 0. The mice in a second group receiving oxaliplatin and xylitol were orally administered with xylitol at a dose of 5 mg/kg daily from Day 0.
(§1) A cold plate test was performed to examine the effect of xylitol on paresthesia that is caused by a low temperature stimulus. The mice in the four groups described in (1) of the present example (Example 1) were placed on a cold plate set at 10° C., and withdrawal response time (latent time) was measured. It is presumed that a shorter latent time reflects a greater degree of shunning the low temperature stimulus by the cold plate.
Six to seven-week-old female Balb/c mice were used for the tests as with Example 1. All the mice were acclimated for seven days after arrival. Then, the mice were grouped into the following five groups: a control group, a group receiving only oxaliplatin, and three groups receiving oxaliplatin and three different doses of xylitol. Each group consisted of seven mice.
On Day 8 of acclimation, the mice in the groups other than the control group were intraperitoneally administered with oxaliplatin at a dose of 6 mg/kg. This day was designated as the first day of the administration (Day 0). Thereafter, these mice were intraperitoneally administered with oxaliplatin at the same dose on Day 7 and Day 14 for a total of 3 doses.
The mice in a first group receiving oxaliplatin+xylitol were orally administered with xylitol at a dose of 5 mg/kg daily from Day 6 of administration. The mice in a second group receiving oxaliplatin+xylitol were orally administered with xylitol at a dose of 25 mg/kg daily from Day 6 of administration. The mice in a third group receiving oxaliplatin+xylitol were orally administered with xylitol at a dose of 100 mg/kg daily from Day 6 of administration. In this context, “Day 6 of administration” means that the number of days after administration is 6. The same applies hereinafter.
as §1, with “A” for “A cold plate”, “performed on the mice in the five groups described in (1) of the present example (Example 2)” for “performed”, “respective” for “the four”, “groups” for “groups described in (1) of the present example (Example 1)”
Six to seven-week-old female Balb/c mice were used for the tests as with Example 1. All the mice were acclimated for seven days after arrival. […]

[3] = 6 mg/kg oxaliplatin + 5 mg/kg test substance orally daily from Day 0 (prevention)
[4] = 6 mg/kg oxaliplatin + 100 mg/kg test substance orally daily from Day 6 (therapy), time course after Day 6

Compound | safety for the human body [1] | withdrawal response time (latent time) [2, 3] | withdrawal response time (latent time) [2, 4] | withdrawal response time (latent time) ([2]; 6 mg/kg oxaliplatin + 1 mg/kg test substance orally daily from Day 0 (prevention)) | withdrawal response time (latent time) ([2]; 6 mg/kg oxaliplatin + 5 mg/kg orally daily from Day 6, on Day 10, vs group receiving 6 mg/kg oxaliplatin) | withdrawal response time (latent time) ([2]; 6 mg/kg oxaliplatin + 5 mg/kg orally daily from Day 6, on Day 14 and Day 17, vs group receiving 6 mg/kg oxaliplatin) | withdrawal response time (latent time) ([2]; 6 mg/kg oxaliplatin + 5 mg/kg orally daily from Day 6, on Day 21, vs group receiving 6 mg/kg oxaliplatin) | withdrawal response time (latent time) ([2]; 6 mg/kg oxaliplatin + 5 mg/kg test substance orally daily from Day 6 (therapy), time course after Day 6) | withdrawal response time (latent time) ([2]; 6 mg/kg oxaliplatin + 25 mg/kg orally daily from Day 6, on Day 10, vs group receiving 6 mg/kg oxaliplatin) | withdrawal response time (latent time) ([2]; 6 mg/kg oxaliplatin + 25 mg/kg test substance orally daily from Day 6 (therapy), time course after Day 6) | withdrawal response time (latent time) ([2]; 6 mg/kg oxaliplatin + 100 mg/kg orally daily from Day 6, on Day 10, vs group receiving 6 mg/kg oxaliplatin)
OC[C@@H](O)[C@H](O)CO [D-threitol] | safe for the human body | approximately similar to that of the control group | tended to become longer from Day 6 onwards; also recorded: significantly longer withdrawal response time | – | – | – | – | – | – | – | –
OC[C@H](O)[C@H](O)[C@H](O)[C@@H](O)CO [L-talitol] | safe for the human body | almost the same data; also recorded: approximately similar to that of the control group | tended to become longer from Day 9 onwards; also recorded: significantly longer withdrawal response time | – | – | – | – | – | – | – | –
OC[C@@H](O)[C@H](O)[C@@H](O)CO [xylitol] | safe for the human body | approximately similar to that of the control group | – | approximately similar to that of the control group | significantly longer withdrawal response time | no significant difference | significantly longer withdrawal response time | tended to become longer from Day 6 onwards; also recorded: significantly longer withdrawal response time | significantly longer withdrawal response time | tended to become longer from Day 6 onwards; also recorded: increase in the withdrawal response time; also recorded: significantly longer withdrawal response time | significantly longer withdrawal response time
